# Experimental data as given in US5512479A, “Method of degrading volatile organochlorides and remediation thereof” (priority 1993, dated 1996).
# What was measured:
# [1] = system: toluene monooxygenase (TMO); test: TCE induced TMO activity with different growth substrates (14C-toluene assay); type: cell-based, Pseudomonas mendocina KR-1; details: 40 μM TCE; for induced TMO activity increase (FIG. 4): growth substrate run, 6 hour period; for factor of TMO activity increase after addition of the substrate (FIG. 4): 3 g/L glutamate, 2 g/L glucose, or 20 mM lactate added after 2.75 hours
# Experimental: (§1) Radioactivity in the bottles was enumerated by placing the bottles in a liquid scintillation counter. Results were recorded as disintegrations per minute (DPM). […] Non-volatile products were not evaporated from the silica gel during the drying phase, and were enumerated by scintillation counting. Thus, the greater the DPMs, the greater the TMO activity.
# (§2) The effect of three growth substrates on TCE induced TMO activity was also established through a series of four runs. Cells were grown overnight as previously described for non-inducing growth: 30° C., 100 RPM, 50 mL cells in 125 mL flask in BSM with either 3 g/L sodium glutamate, 20 mM lactate, or 2 g/L glucose. The cultures were then washed and suspended to an O.D.550 =1.0 in BSM plus 0.3 g/L glutamate, 2.0 mM lactate, and 0.2 g/L glucose, respectively. TCE was then added to a final concentration of 40 μM, vials were sealed, and shaken at 30° C. […] At timed intervals, 10 μL of the air above the reaction mixture was removed from the vials by using a gas-tight syringe, and injected onto a gas chromatograph (Varian 3400; Star Data System) equipped with a 30M VOCOL column (Supelco Inc.: c0.53 mm ID, […] film, helium carrier at 7 mL/min, 100° C. isothermal, injector at 225° C.) and an electron capture detector (GC-ECD; 300° C.) to quantify the TCE remaining in the vial. Relative TCE concentration was enumerated as area counts, greater area counts representing greater amounts of TCE remaining in the vials. Five cell suspensions as described above were supplemented with 1 μM, 10 μM, 20 μM, 40 μM and 80 μM of TCE. A control run not shown in FIG. 3, and performed in the same manner as the other five runs, contained only DMF. Cell suspensions were incubated at 30° C. with shaking, and TMO activity, as described above with respect to Example 1, was determined at timed intervals.
# [2] = system: toluene monooxygenase (TMO); type: cell-based, Pseudomonas mendocina KR-1; details: for TMO Activity (DPM): cells grown 48 hr on growth substrate (Table 1); for % Activity: relative to toluene-grown cells (Table 1)
# Experimental: as §1
# To determine the ability of alkanes to assist in the induction of TMO activity in P. mendocina KR-1 and to subsequently degrade TCE, the organism was grown in basal salts medium with hexane, octane and pentane as sole carbon and energy sources.
# Cells were grown for 48 hr, washed with BSM, then suspended to an OD550 of 1.0 in BSM. Cells were incubated for 1 hr to allow removal of most residual alkane. They were then subjected to TMO and TCE assays.
# [3] = system: toluene monooxygenase (TMO); type: cell-based, Pseudomonas mendocina KR-1; details: for induction of TMO, in words: substrate added to glutamate-grown cells
# Experimental: as §1
# A TMO assay was performed on the cells. Then 5 ml of the culture was added to each of four 50 mL serum vials. […] The vials were incubated at 30° C. and sampled, by using a glass syringe, at 1.5 hr and 2.5 hr after substrate addition.
# [4] = system: Pseudomonas mendocina KR-1; test: TCE degradation (TCE bottle assay, gas chromatography); type: cell-based
# Experimental: as §2
# To determine the ability of alkanes to assist in the induction of TMO activity in P. mendocina KR-1 and to subsequently degrade TCE, the organism was grown in basal salts medium with hexane, octane and pentane as sole carbon and energy sources. TMO activity was determined by using the ^14 C-toluene assay and TCE degradation was measured by using a TCE bottle assay, both as described previously.
# Finally, alkane grown cells were analyzed for their ability to degrade TCE by using the TCE bottle assay and cells suspended in BSM to OD550 =2.0. […] Loss of TCE in the control (glucose) sample is thought to be due to induction of TMO by TCE.
# Pseudomonas putida = details: only upon induction by toluene or phenol; cited from earlier work
# Pseudomonas cepacia = details: cited from earlier work
# [5] = system: toluene monooxygenase (TMO); test: TMO activity induced by TCE (14C-toluene assay); type: cell-based, Pseudomonas mendocina KR-1
# Experimental: Cells were first grown overnight under non-inducing conditions. Specifically, cells were grown by suspending a small amount of cells from agar plate, or broth media, in a 125 mL flask containing 50 mL of basal salts medium (BSM) containing 3 g/L sodium glutamate with or without 0.1 g/L casamino acids (Difco). Cells were placed on a rotary shaker and shaken at 100 rpm and 30° C. for 16-24 hr. The cells were then centrifuged and washed with BSM. They were subsequently suspended in BSM and glutamate (3 g/L) to an optical density at 550 nm (OD550) of 1.0. Ten mL of cell suspension was added to a 50 mL serum vial, and 10 μL TCE (40 mM) dissolved in dimethylformamide (DMF) was added to a final concentration of 40 μM.
# Comparison non-induced samples were prepared by adding only dimethylformamide (10 μL) to replicate 10 mL cell suspensions. The comparison samples contained no TCE. All sample vials were sealed with teflon-coated crimp seals and the cell suspensions were shaken at 25° C.
# as §1
# Another set of experiments containing five runs was performed to determine the preferred concentration of TCE used to induce the TMO genes in P. mendocina KR-1. TCE degradation was measured by suspending cells in BSM to an OD550 of 1.0. 10 mL of cells were added to 50 mL serum vials and 10 μL of TCE in dimethylformamide was added (final TCE concentration: 1-80 μM). Vials were sealed with teflon-lined crimp seals and shaken at 30° C. At timed intervals, 250 μl of sample was removed from each sample by using a syringe. The sample was mixed with 250 μl BSM to generate a final volume of 0.5 mL and OD550 of 0.5. ^14 C-Toluene assays were then performed on the samples as described previously.
molecule,measurement,setting,value
"N[C@@H](CCC(=O)[O-])C(=O)[O-].[Na+].[Na+] [Gultamate, sodium glutamate, reference compound]",induced TMO activity increase (FIG. 4),[1],"up to 3,500 DPM"
same,factor of TMO activity increase after addition of the substrate (FIG. 4),[1],at least 5
same,TMO Activity (DPM),[2],123 DPM
same,% Activity,[2],0.7%
CCCCCC [Hexanes],TMO Activity (DPM),[2],4889 DPM
same,% Activity,[2],29%
CCCCCCCC [Octane],TMO Activity (DPM),[2],3915 DPM
same,% Activity,[2],23%
CCCCC [Pentane],TMO Activity (DPM),[2],2079 DPM
same,% Activity,[2],12%
same,"TMO Activity (DPM), T = 1.5 hr.","[3]; 1.5 hr after substrate addition, 30° C. (Table 2)",2480 DPM
same,"TMO Activity (DPM), T = 2.5 hr.","[3]; 2.5 hr after substrate addition, 30° C. (Table 2)",1293 DPM
same,"TMO Activity (DPM), T = 0","[3]; T = 0, before substrate addition (Table 2)",126 DPM
same,"TMO Activity (DPM), T = 1.5 hr., killed cells","[3]; killed (100 μl 1M HCl) + pentane, 1.5 hr (Table 2)",128 DPM
same,"TMO Activity (DPM), T = 2.5 hr., killed cells","[3]; killed (100 μl 1M HCl) + pentane, 2.5 hr (Table 2)",121 DPM
same,"TMO Activity (DPM), T = 0, killed cells","[3]; killed (100 μl 1M HCl) + pentane, T = 0 (Table 2)",126 DPM
same,"induction of TMO, in words",[3],induction of TMO by pentane
"ClC=C(Cl)Cl [TCE, trichloroethylene]",TMO induction by TCE in glutamate- and glucose-grown cells,[1],rapid induction
same,percentage of TCE remaining (FIG. 6),"[4]; 6 hours, glucose (2 g/L) added after about 3 hours, 40 µM",about 10%
same,loss of TCE in the control (glucose) sample (FIG. 7),"[4]; OD550 = 2.0, glucose-grown control",Loss of TCE
same,TCE degradation (FIG. 6),[4]; absent any additional inducing substrates,TCE degradation occurs simply by contacting Pseudomonas mendocina cells with TCE
same,TCE concentrations in response to TMO induction (FIG. 5),"[4]; sealed vials, 6 hours",decreased in response to TMO induction
same,TCE degradation by Pseudomonas putida PpF1 and B5,Pseudomonas putida,some ability to degrade TCE
same,TCE degradation by Pseudomonas cepacia G4,Pseudomonas cepacia; grown without an inducer,unable to degrade TCE
same,TCE degradation by Pseudomonas cepacia 5223-PR1,Pseudomonas cepacia; recombinant strain,did display the ability to degrade TCE
same,TMO activity (FIG. 3),"[5]; 1 μM TCE, 4 hour test period",very little TMO activity was measured
same,TMO activity (FIG. 3),"[5]; 10 μM or more of TCE, after the first half hour",increased dramatically after the first half hour
same,induced TMO activity over 30 minutes (FIG. 1),"[5]; 40 μM TCE, 25° C., 30 minute period",increased dramatically over the 30 minute time period
same,TMO activity (FIG. 2),"[5]; 40 μM TCE, first 75 minutes","over 3,000 DPM"
same,further increase of TMO activity (FIG. 2),"[5]; 40 μM TCE, remaining 4 1/2 to 5 hours of six hour experiment",almost two fold
same,rate of increase of TMO activity (FIG. 1),"[5]; 40 μM TCE, ten minute time interval",substantially two fold rate
same,induction of TMO activity (FIG. 3),[5]; 10 and 20 μM TCE,best results with respect to induction of TMO activity
same,induction of TMO activity (FIG. 3),[5]; concentrations higher than 10 and 20 μM TCE,quite effective
"Cc1ccccc1 [Toluene, reference compound]",% Activity,[2],100%
same,"induction of TMO, in words",[3],only limited activity was observed
CC(O)C(=O)O (stereo not shown) [lactate],TMO activity up to 2.75 hours (FIG. 4),[1]; before addition of further substrate,little or no TMO activity
same,factor of TMO activity increase after addition of the substrate (FIG. 4),[1],at least 5
glucose,induced TMO activity increase (FIG. 4),[1],"under 5,000 DPM"
same,factor of TMO activity increase after addition of the substrate (FIG. 4),[1],at least 5
same,effect of growth substrate on TCE degradation (FIG. 5),"[4]; 40 μM TCE, 6 hours",greatest effect on TCE degradation
